Measured values reported in ChEMBL document CHEMBL1201862, “PubChem BioAssay data set” (2004).
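Following 48 hours of exposure in 96-well plates, responses at five concentrations were used to interpolate endpoints linearly. Here, GI50 denotes the concentration required for 50% inhibition of growth.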 Calls of active or inactive are those of the source. Rule as the data show it: active = GI50 up to about 1.1 µM and inactive = higher.

Experiments:
Assay in all cases: NCI tumour cell line growth inhibition, 48 h
[1] = tested on: HCT-15
[2] = tested on: NCI-H226
[3] = tested on: LOX IMVI
[4] = tested on: UACC-62
[5] = tested on: MDA-MB-435
[6] = tested on: OVCAR-8
[7] = tested on: NCI-H23
[8] = tested on: HOP-62
[9] = tested on: HCC 2998
[10] = tested on: NCI/ADR-RES
[11] = tested on: SK-MEL-28
[12] = tested on: HOP-92
[13] = tested on: EKVX
[14] = tested on: UO-31
[15] = tested on: HL-60
[16] = tested on: RXF 393
[17] = tested on: OVCAR-4
[18] = tested on: M14
[19] = tested on: IGROV-1
[20] = tested on: SN12C

| Compound | GI50 [1] | GI50 [2] | GI50 [3] | GI50 [4] | GI50 [5] | GI50 [6] | GI50 [7] | GI50 [8] | GI50 [9] | GI50 [10] | GI50 [11] | GI50 [12] | GI50 [13] | GI50 [14] | GI50 [15] | GI50 [16] | GI50 [17] | GI50 [18] | GI50 [19] | GI50 [20] |
| --- | --- | --- | --- | --- | --- | --- | --- | --- | --- | --- | --- | --- | --- | --- | --- | --- | --- | --- | --- | --- |
| COc1ccc2c(=O)c3ccoc3[nH]c2c1 | > 100 µM | > 100 µM (inactive) | > 100 µM (inactive) | > 100 µM (inactive) | > 100 µM (inactive) | > 100 µM (inactive) | > 100 µM (inactive) | > 100 µM (inactive) | > 100 µM (inactive) | > 100 µM (inactive) | > 100 µM (inactive) | > 100 µM (inactive) | > 100 µM (inactive) | > 100 µM (inactive) | > 100 µM (inactive) | > 100 µM (inactive) | > 100 µM (inactive) | > 100 µM (inactive) | > 100 µM (inactive) |  |
| CCC(=O)Nc1cccc(NC(=O)c2c(Cl)c(Cl)c(Cl)c(Cl)c2-c2nc3ccccc3[nH]2)c1 | 60.7 µM |  | 77.4 µM (inactive) | 5.21 µM (inactive) | 32.4 µM (inactive) | > 100 µM (inactive) | > 100 µM (inactive) |  | 49.7 µM (inactive) | > 100 µM (inactive) | > 100 µM (inactive) | 5.36 µM (inactive) | 52.8 µM (inactive) | 21.7 µM (inactive) | 43 µM (inactive) | 21.6 µM (inactive) | 71.6 µM (inactive) | 29 µM (inactive) | 14.2 µM (inactive) | > 100 µM (inactive) |
| CC(=N/NC(=S)N(C)C)/C(=N\NC(=S)N(C)C)c1ccccc1 | 1.21 µM | 1.71 µM (inactive) | 3.08 µM (inactive) | 1.94 µM (inactive) | 1.87 µM (inactive) | 2.02 µM (inactive) | 2.32 µM (inactive) | 2.24 µM (inactive) | 0.989 µM (active) | 2.47 µM (inactive) | 1.9 µM (inactive) | 1.95 µM (inactive) | 1.85 µM (inactive) | 2.11 µM (inactive) |  | 1.46 µM (inactive) | 2.02 µM (inactive) | 1.97 µM (inactive) | 1.66 µM (inactive) | 1.47 µM (inactive) |
| Cc1ccc(S(=O)(=O)NC(=O)Nc2nc[nH]n2)cc1 | > 100 µM | > 100 µM (inactive) |  | > 100 µM (inactive) | > 100 µM (inactive) | > 100 µM (inactive) | > 100 µM (inactive) | > 100 µM (inactive) | > 100 µM (inactive) | > 100 µM (inactive) | > 100 µM (inactive) | > 100 µM (inactive) | > 100 µM (inactive) | > 100 µM (inactive) | > 100 µM (inactive) | > 100 µM (inactive) | > 100 µM (inactive) | > 100 µM (inactive) | > 100 µM (inactive) | > 100 µM (inactive) |
| Oc1cccnc1CN1CCCCC1 | > 100 µM | > 100 µM (inactive) | > 100 µM (inactive) | > 100 µM (inactive) | > 100 µM (inactive) | > 100 µM (inactive) | > 100 µM (inactive) | > 100 µM (inactive) | > 100 µM (inactive) | > 100 µM (inactive) | > 100 µM (inactive) | > 100 µM (inactive) | > 100 µM (inactive) | > 100 µM (inactive) |  | > 100 µM (inactive) | > 100 µM (inactive) | > 100 µM (inactive) | > 100 µM (inactive) | > 100 µM (inactive) |
| CCC(c1ccc2cc(O)ccc2c1)C(C)(C)C(=O)O (configuration not stated) | > 100 µM | > 100 µM (inactive) | > 100 µM (inactive) | > 100 µM (inactive) | > 100 µM (inactive) | > 100 µM (inactive) | > 100 µM (inactive) | > 100 µM (inactive) | > 100 µM (inactive) | > 100 µM (inactive) | > 100 µM (inactive) | > 100 µM (inactive) | > 100 µM (inactive) | > 100 µM (inactive) |  | > 100 µM (inactive) | > 100 µM (inactive) | > 100 µM (inactive) | > 100 µM (inactive) | > 100 µM (inactive) |
| OCCSCc1cc(Cl)cc(Cl)c1O | > 100 µM | 61.7 µM (inactive) | > 100 µM (inactive) | > 100 µM (inactive) | > 100 µM (inactive) | > 100 µM (inactive) | > 100 µM (inactive) | > 100 µM (inactive) | > 100 µM (inactive) | > 100 µM (inactive) | > 100 µM (inactive) | 57.9 µM (inactive) | > 100 µM (inactive) | > 100 µM (inactive) |  | > 100 µM (inactive) | > 100 µM (inactive) | > 100 µM (inactive) | > 100 µM (inactive) | > 100 µM (inactive) |
